Source: patent publication US8716293B2, “Macrocyclic integrase inhibitors” (Janssen R&D Ireland, priority 2010, dated 2014)

Assays:
[1] = test system: HIV-1 SDM strain G140S-Q148H; test: cell-based HIV-1 replication assay in MT4-LTR-EGFP cells, G140S-Q148H mutant; settings: fold change in activity against G140S-Q148H mutant compared to wild type HIV
Source text: (§1) MT4-LTR-enhanced green fluorescent protein (EGFP) cells were obtained by transfecting MT4 cells with a selectable construct encompassing the coding sequences for the HIV LTR as a promoter for the expression of EGFP and subsequent selection of permanently transfected cells. MT4-cytomegalovirus (CMV)-EGFP cells were obtained by selection for permanently transformed MT4 cells with a CMV-EGFP reporter gene. Cell lines were maintained in RPMI 1640 medium supplemented with 10% heat-inactivated fetal calf serum, 2 mM L-glutamine, 0.1% NaHCO3, and antibiotics (0.02% gentamicin and 0.8% G418) and incubated in a humidified incubator with a 5% CO2 atmosphere at 37° C.
(§2) N155H and Q148R mutant Integrase coding sequences were constructed in the pUC19-5′HXB2D vector (XbaI-SalI fragment of pHXB2D), containing the HIV-1 clone HXB2D IN coding sequence, by using a QuikChange site-directed mutagenesis kit (Stratagene, La Jolla, Calif.) and HPLC-purified primers (Genset Oligos, La Jolla, Calif.). Altered plasmid sequences were confirmed by dideoxyribose sequencing. For generation of site-directed mutant (SDM) virus stocks, MT4 cells were subcultured at a density of 250,000 cells/ml on the day before transfection. Cells were pelleted and resuspended in phosphate-buffered saline at a concentration of 3.1×10^6 cells/ml. A 0.8-ml portion ([…]) was used for each transfection. Transfections were performed with a Bio-Rad Gene Pulser (Bio-Rad, Hercules, Calif.) with 0.4-cm electrode cuvettes (Bio-Rad). Cells were electroporated with 10 μg of SalI-linearized pUC19-3′HXB2D (SalI-XbaI fragment of pHXB2D) and 5 μg of SalI-digested SDM at 250 μF and 300 V, followed by a 30-min incubation at room temperature. Ten ml of fresh culture medium was then added to the suspension of transfected cells, and incubation was performed at 37° C. in a humidified atmosphere with 5% CO2. Cell cultures were monitored for the appearance of cytopathic effect (CPE).
(§3) The inhibitory antiviral activity of different compounds was determined in a cell-based HIV-1 replication assay. MT4-LTR-EGFP cells (150,000 cells/ml) were infected with HIV-1 (IIIB or SDM strains Q148R, N155H, or G140S-Q148H; multiplicity of infection [MOI] of 0.0025) in the presence or absence of inhibitor. After 3 days of incubation, the inhibition of HIV replication was quantified by measuring EGFP fluorescence, and expressed as the compound concentration required for 50% inhibition of HIV-1 replication in cell culture (EC50).

[2] = test system: cryopreserved hepatocytes of human subjects; test: metabolic stability in human hepatocytes; assay type: in vitro ADME; settings: 1 μM, percentage turnover; for Human (% TO) 15 min: 15 min incubation; for Human (% TO) 60 min: 60 min incubation
Procedure: (§4) For determining in vitro metabolic stability, cryopreserved hepatocytes from Sprague Dawley rats and of human subjects (pool of male and female) were obtained from an external supplier (Cellz Direct Inc., Paisly, UK). Tested compounds were dissolved in DMSO and this stock solution was used to spike rat and human hepatocyte cell cultures (10^6 cells/ml) at a final concentration of 1 μM (final percentage of DMSO was 0.02% (v/v)). Incubations were performed for up to 60 min at approximately 37° C. and terminated by the addition of two volumes of DMSO. Samples were then centrifuged and aliquots of the supernatant analyzed using liquid chromatography (LC) with electrospray mass spectrometric detection (MS/MS) to monitor the disappearance of parent compound by single reaction monitoring (SRM) and reverse-phase chromotatography with a gradient of acetonitrile and water containing 0.1% (v/v) formic acid. Based on peak area, the percentage of parent compound remaining after 15 and 60 min incubation was calculated and the results, expressed as percentage turnover (TO) relative to time zero controls.

HIV-1 SDM strain N155H = test: cell-based HIV-1 replication assay in MT4-LTR-EGFP cells, N155H mutant; settings: fold change in activity against N155H mutant compared to wild type HIV
Source text: as §1, §2, §3

HIV-1 (IIIB) = test: cell-based HIV-1 replication assay in MT4-LTR-EGFP cells, wild type; settings: Human immunodeficiency virus 1, 72 h, 3 days, EGFP fluorescence
Source text: as §1
as §3, with “(EC50). The antiviral activities of the different compounds are reported in Table 4 and expressed as EC50 for the inhibition of wild type HIV (IIIB EC50) and as fold change in activity against the mutant strains (FC-Q148R, FC-N155H, FC-G140S-Q148H) compared to the activity against wild type HIV.” for “(EC50).”

HIV-1 LAI (IIIB) = test: antiviral assay in the presence of 50% human serum; assay type: cell-based; settings: MT-4-LTR-EGFP cells, 4 days, resazurin cell viability
Procedure: For the antiviral assay in the presence of 50% human serum, MT-4-LTR-EGFP cells were infected with HIV-1 LAI (IIIB) at a MOI of 0.001 to 0.01 CCID50/cell in RPMI1640 medium. Following 1 h of incubation, cells were washed and plated into a 96-well plate containing serial dilutions of test compound in the presence of 10% fetal calf serum or 50% human serum. After 4 days of incubation, the EC50 in the presence of 50% human serum (EC50/HS) was determined by a cell viability assay using resazurin (as described by Fields, R. D., and M. V. Lancaster (1993) Am. Biotechnol. Lab. 11:48-50).

HIV-1 SDM strain Q148R = test: cell-based HIV-1 replication assay in MT4-LTR-EGFP cells, Q148R mutant; settings: fold change in activity against Q148R mutant compared to wild type HIV
Source text: as §1, §2, §3

[3] = test system: cryopreserved hepatocytes from Sprague Dawley rats; test: metabolic stability in rat hepatocytes; assay type: in vitro ADME; settings: 1 μM, percentage turnover; for Rat (% TO) 15 min: 15 min incubation; for Rat (% TO) 60 min: 60 min incubation
Procedure: as §4

[4] = pharmacokinetic evaluation in the rat; assay type: in vivo, male Sprague-Dawley rats; settings: intravenous bolus 2 mg/kg; for clearance / half-life / Vd: male, Sprague-Dawley, plasma, iv; for clearance / CLp: plasma clearance; for clearance: read-out: CLp; for half-life / t1/2: terminal phase elimination half-life; for Vd: read-out: Vss
Procedure: For determining the pharmacokinetic properties in rat, each HIV integrase inhibitor was dissolved in PEG400/normal saline (70:30 (v/v)) at a nominal concentration of 1 mg/ml and administered (2 ml/kg) to male Sprague-Dawley rats (n=3 per test compound) as an intravenous bolus via a saphenous vein at a dose level of 2 mg/kg. […] Plasma was obtained by centrifugation and stored at −20° C. prior to analysis. Analysis was performed using liquid chromatography (LC) with tandem mass spectrometric detection (MS/MS) in positive ion mode. Each HIV integrase inhibitor was eluted from a reversed-phase column with a gradient of acetonitrile and water containing 0.1% (v/v) formic acid. At the time of analysis plasma samples (50 p. 1) were thawed and […] with 200 μl of acetonitrile containing 0.1% (v/v) formic acid and centrifuged. Aliquots of the supernatant (100 μl) were diluted with 200 μl of water containing 25% (v/v) methanol and 0.1% (v/v) formic acid and injected via an electrospray interface directly into the Mass Spectrometer. Calibration standards and quality controls were prepared in rat plasma at the same time as the samples and analyzed before and after the samples containing HIV integrase inhibitor. Non-compartmental pharmacokinetic analysis of the plasma concentration-time curves was performed using WinNonLin software to provide estimates of the plasma clearance (CLp), volume of distribution at steady-state (Vss) and terminal phase elimination half-life (t1/2).

[5] = Human immunodeficiency virus 1, IIIB, 96 h
[6] = 2 mg/kg, volume of distribution at steady-state

SMILES	FC-G140S-Q148H [1]	Human (% TO) 15 min [2]	Human (% TO) 60 min [2]	FC-N155H (HIV-1 SDM strain N155H)	EC50 (HIV-1 (IIIB))	EC50 (HIV-1 LAI (IIIB); [5])	FC-Q148R (HIV-1 SDM strain Q148R)	Rat (% TO) 15 min [3]	Rat (% TO) 60 min [3]	clearance ([4]; 2 mg/kg)	half-life ([4]; 2 mg/kg)	Vd [4, 6]	melting point	CLp ([4]; 2 mg/kg)	t1/2 ([4]; 2 mg/kg)	EC50 (HIV-1 LAI (IIIB))	CLp [4]	t1/2 [4]	Vss ([4]; volume of distribution at steady-state)
CCN1C[C@H](C)n2c(c(O)c3c(=O)n4nc(c32)N(C)S(=O)(=O)CCCCOc2cc(F)ccc2C4)C1=O [Compound 1]	2.6	16 % TO	31 % TO	3.2	0.92 nM	3 nM	0.7	30 % TO	42 % TO	8 mL/min/kg	4.8 h	0.8 L/kg	298.6 to 300.6 °C	–	–	–	–	–	–
CCN1C[C@H](C)n2c(c(O)c3c(=O)n4nc(c32)C(=O)NCCCCCOc2cc(F)ccc2C4)C1=O [Compound 3]	8.1	–	–	3.9	2.35 nM	13 nM	0.9	–	–	6 mL/min/kg	4.4 h	–	128.21 °C	8 mL/min/kg	7.8 h	–	–	–	–
CCN1C[C@H](C)n2c(c(O)c3c(=O)n4nc(c32)C(=O)NCCCCCOc2cc(F)c(F)cc2C4)C1=O [Compound 4]	10.9	–	–	6.1	2.61 nM	10 nM	1.2	–	–	–	–	–	127.49 to 128.63 °C	–	–	–	–	–	–
CCN1C[C@H](C)n2c(c(O)c3c(=O)n4nc(c32)N(C)S(=O)(=O)CCCCOCc2cc(F)ccc2C4)C1=O [Compound 48]	1.3	38 % TO	72 % TO	4.7	–	–	0.5	65 % TO	86 % TO	–	–	–	–	–	–	4 nM	20 mL/min/kg	1.4 h	0.7 L/kg
CCN1C[C@H](C)n2c(c(O)c3c(=O)n(Cc4ccc(F)c(Cl)c4)nc(C(=O)NC)c32)C1=O [Compound 52r, reference compound]	56.9	25 % TO	44 % TO	6.8	3.4 nM	29 nM	1.2	38 % TO	76 % TO	5 mL/min/kg	1.6 h	0.2 L/kg	–	–	–	–	–	–	–
CCN1C[C@H](C)n2c(c(O)c3c(=O)n(Cc4ccc(F)cc4)nc(N(C)S(C)(=O)=O)c32)C1=O [Compound 53r, reference compound]	2.0	41 % TO	84 % TO	4.9	0.99 nM	3 nM	0.4	60 % TO	89 % TO	75 mL/min/kg	1.7 h	2.9 L/kg	–	–	–	–	–	–	–
CCN1C[C@@H](C)n2c(c(O)c3c(=O)n(Cc4ccc(F)c(Cl)c4)nc(N4CCN(C)S4(=O)=O)c32)C1=O [Compound 54r, reference compound]	3.1	16 % TO	23 % TO	4.4	2.04 nM	7 nM	0.4	32 % TO	46 % TO	40 mL/min/kg	1.5 h	2.2 L/kg	–	–	–	–	–	–	–
